This is an account of results in ChEMBL document CHEMBL1149631, “Synthesis of 3,8,9-trisubstituted-1,7,9-triaza-fluorene-6-carboxylic acid derivatives as a new class of insulin secretagogues” (Bioorg Med Chem, 2007).

Common to all, as to format: functional
Experiment [1] is described as follows: Effect on glucose-dependent insulin secretion activity per ug of total protein in rat RIN5F cells at 0.1 uM after 30 mins.
Experiment [2] is described as follows: Effect on glucose-dependent insulin secretion activity per ug of total protein in rat RIN5F cells at 10 uM after 30 mins.
A short description of experiment [3]: Effect on glucose-dependent insulin secretion activity per ug of total protein in rat RIN5F cells at 1 uM after 30 mins.

The structures appear in SMILES notation.

Turning to `COC(=O)C1Cc2c([nH]c3ncc(C)cc23)C(Cc2ccccc2)N1` (stereo not drawn), the Activity in experiment [1] was determined as 11.5 pg/µg/h; in experiment [2], 12.9 pg/µg/h; in experiment [3], 12.2 pg/µg/h.
Taken in the same sequence, the figures for `O=C(O)c1cc2c([nH]c3ncccc32)c(Cc2ccccc2)n1` were 17.1 pg/µg/h, 21.5 pg/µg/h and 18.3 pg/µg/h.
The matching figures for `O=C(O)c1cc2c(cn1)[nH]c1ncccc12`: 14.1 pg/µg/h, 18 pg/µg/h and 16.2 pg/µg/h.
In the case of `COC(=O)C1Cc2c(n(C)c3ncc(C)cc23)C(c2ccccc2)N1` (stereo not drawn), the Activity in experiment [1] was 13.5 pg/µg/h; in experiment [2] it was 15.2 pg/µg/h; in experiment [3], 14.9 pg/µg/h.
The matching figures for `COC(=O)C1Cc2c(n(C)c3ncccc23)C(Cc2ccccc2)N1` (stereo not drawn): 11.5 pg/µg/h, 12.9 pg/µg/h and 12.2 pg/µg/h.
In the case of `Cn1c2ncccc2c2cc(C(=O)O)nc(-c3ccccc3)c21`, the Activity is 17.2 pg/µg/h in experiment [1], 21.1 pg/µg/h in experiment [2] and 19.3 pg/µg/h in experiment [3].
As for `COC(=O)C1Cc2c(n(C)c3ncc(C)cc23)CN1` (stereo not drawn), the Activity worked out at 12.2 pg/µg/h in experiment [1], 14.1 pg/µg/h in experiment [2] and 13.1 pg/µg/h in experiment [3].
`COC(=O)c1cc2c([nH]c3ncccc32)c(Cc2ccccc2)n1`: the Activity in experiment [1] amounted to 12.9 pg/µg/h; in experiment [2], 13.5 pg/µg/h; in experiment [3] it was 13 pg/µg/h.
The matching figures for `COC(=O)c1cc2c3cc(C)cnc3n(C)c2cn1`: 14.3 pg/µg/h, 15.6 pg/µg/h and 14.9 pg/µg/h.
In the case of `COC(=O)C1Cc2c(n(C)c3ncccc23)C(c2ccccc2)N1` (stereo not drawn), the Activity in experiment [1] was 11 pg/µg/h; in experiment [2], 12.2 pg/µg/h; in experiment [3], 11.9 pg/µg/h.
The matching figures for `COC(=O)c1cc2c(cn1)[nH]c1ncc(C)cc12`: 13.1 pg/µg/h, 13.9 pg/µg/h and 13.2 pg/µg/h.
Taken in the same sequence, the figures for `COC(=O)c1cc2c3cc(C)cnc3n(C)c2c(-c2ccccc2)n1` were 15.1 pg/µg/h, 16.2 pg/µg/h and 15.6 pg/µg/h.
For `Cc1cnc2[nH]c3cnc(C(=O)O)cc3c2c1`, the figures for the Activity in experiment [1], in experiment [2] and in experiment [3] were 15.1 pg/µg/h, 19.2 pg/µg/h and 17.3 pg/µg/h, respectively.
Taken in the same sequence, the figures for `Cc1cnc2c(c1)c1cc(C(=O)O)nc(C)c1n2C` were 18.1 pg/µg/h, 28.3 pg/µg/h and 22 pg/µg/h.
As for `COC(=O)C1Cc2c(n(C)c3ncccc23)CN1` (stereo not drawn), the Activity turned out to be 10.8 pg/µg/h in experiment [1], 11.5 pg/µg/h in experiment [2] and 11.2 pg/µg/h in experiment [3].
The matching figures for `COC(=O)C1Cc2c(n(C)c3ncccc23)C(C2CCCCC2)N1` (stereo not drawn): 10.9 pg/µg/h, 11.9 pg/µg/h and 11.5 pg/µg/h.
The matching figures for `COC(=O)c1cc2c([nH]c3ncc(C)cc32)c(Cc2ccccc2)n1`: 14.1 pg/µg/h, 15.1 pg/µg/h and 14.8 pg/µg/h.
The matching figures for `COC(=O)c1cc2c(cn1)[nH]c1ncccc12`: 11 pg/µg/h, 12 pg/µg/h and 11.9 pg/µg/h.
Consider `Cc1cnc2c(c1)c1cc(C(=O)O)ncc1n2C`, for which the Activity in experiment [1] is 17.3 pg/µg/h; in experiment [2], 24.2 pg/µg/h; in experiment [3] it was 20 pg/µg/h.
Taken in the same sequence, the figures for `COC(=O)C1Cc2c([nH]c3ncccc23)C(c2ccccc2)N1` (stereo not drawn) were 10.8 pg/µg/h, 11.5 pg/µg/h and 11.2 pg/µg/h.
The matching figures for `Cc1cnc2[nH]c3c(C)nc(C(=O)O)cc3c2c1`: 16.2 pg/µg/h, 21.1 pg/µg/h and 18.5 pg/µg/h.
Taken in the same sequence, the figures for `COC(=O)c1cc2c([nH]c3ncccc32)c(-c2ccccc2)n1` were 12 pg/µg/h, 12.9 pg/µg/h and 12.6 pg/µg/h.
For the molecule `COC(=O)c1cc2c([nH]c3ncccc32)c(C2CCCCC2)n1`, the results for the Activity in experiment [1], in experiment [2] and in experiment [3] were 11.9 pg/µg/h, 12.5 pg/µg/h and 12.1 pg/µg/h, respectively.
The matching figures for `O=C(O)c1cc2c([nH]c3ncccc32)c(C2CCCCC2)n1`: 15.5 pg/µg/h, 20.4 pg/µg/h and 17.1 pg/µg/h.
Taken in the same sequence, the figures for `COC(=O)c1cc2c([nH]c3ncc(C)cc32)c(C)n1` were 13.5 pg/µg/h, 14.2 pg/µg/h and 13.9 pg/µg/h.
For the molecule `COC(=O)C1Cc2c([nH]c3ncccc23)C(C)N1` (stereo not drawn), the Activity in experiment [1] is 10.1 pg/µg/h; in experiment [2], 10.9 pg/µg/h; in experiment [3] it was 10.6 pg/µg/h.
With `COC(=O)C1Cc2c([nH]c3ncccc23)CN1` (stereo not drawn), the results for the Activity in experiment [1], in experiment [2] and in experiment [3] were 10.1 pg/µg/h, 10.9 pg/µg/h and 10.6 pg/µg/h, respectively.
Taken in the same sequence, the figures for `Cn1c2cnc(C(=O)O)cc2c2cccnc21` were 15.2 pg/µg/h, 19.1 pg/µg/h and 17.4 pg/µg/h.
Taken in the same sequence, the figures for `Cc1cnc2[nH]c3c(Cc4ccccc4)nc(C(=O)O)cc3c2c1` were 18 pg/µg/h, 22.1 pg/µg/h and 19.2 pg/µg/h.
The matching figures for `Cc1cnc2c(c1)c1cc(C(=O)O)nc(-c3ccccc3)c1n2C`: 19.1 pg/µg/h, 32.2 pg/µg/h and 26 pg/µg/h.
As for `COC(=O)C1Cc2c([nH]c3ncc(C)cc23)C(c2ccccc2)N1` (stereo not drawn), the Activity is 11 pg/µg/h in experiment [1], 12.2 pg/µg/h in experiment [2] and 11.9 pg/µg/h in experiment [3].
Taken in the same sequence, the figures for `COC(=O)C1Cc2c(n(C)c3ncccc23)C(C)N1` (stereo not drawn) were 10.9 pg/µg/h, 11.9 pg/µg/h and 11.5 pg/µg/h.
The matching figures for `Cc1cnc2[nH]c3c(C4CCCCC4)nc(C(=O)O)cc3c2c1`: 16.3 pg/µg/h, 21.2 pg/µg/h and 18.4 pg/µg/h.
The matching figures for `COC(=O)c1cc2c3cccnc3n(C)c2cn1`: 13 pg/µg/h, 13.9 pg/µg/h and 13.1 pg/µg/h.
As for `COC(=O)c1cc2c3cc(C)cnc3n(C)c2c(C)n1`, the Activity amounted to 14.8 pg/µg/h in experiment [1], 15.9 pg/µg/h in experiment [2] and 15.2 pg/µg/h in experiment [3].
For the molecule `Cc1cnc2[nH]c3c(-c4ccccc4)nc(C(=O)O)cc3c2c1`, the Activity in experiment [1] is 17.1 pg/µg/h; in experiment [2] it was 21.4 pg/µg/h; in experiment [3], 19.3 pg/µg/h.
The matching figures for `COC(=O)C1Cc2c([nH]c3ncccc23)C(Cc2ccccc2)N1` (stereo not drawn): 10.9 pg/µg/h, 11.9 pg/µg/h and 11.5 pg/µg/h.
The matching figures for `COC(=O)c1cc2c([nH]c3ncccc32)c(C)n1`: 11 pg/µg/h, 12.5 pg/µg/h and 12.1 pg/µg/h.
Regarding `Cn1c2ncccc2c2cc(C(=O)O)nc(Cc3ccccc3)c21`, the Activity was found to be 18.5 pg/µg/h in experiment [1], 22.2 pg/µg/h in experiment [2] and 19.4 pg/µg/h in experiment [3].
With `Cn1c2ncccc2c2cc(C(=O)O)nc(C3CCCCC3)c21`, the values for the Activity in experiment [1], in experiment [2] and in experiment [3] were 16.1 pg/µg/h, 21.4 pg/µg/h and 18.4 pg/µg/h, respectively.
The matching figures for `O=C(O)c1cc2c([nH]c3ncccc32)c(-c2ccccc2)n1`: 16.2 pg/µg/h, 20.6 pg/µg/h and 18.1 pg/µg/h.
The matching figures for `COC(=O)c1cc2c3cccnc3n(C)c2c(C2CCCCC2)n1`: 13.4 pg/µg/h, 14.2 pg/µg/h and 13.9 pg/µg/h.
In the case of `COC(=O)C1Cc2c([nH]c3ncc(C)cc23)CN1` (stereo not drawn), the figures for the Activity in experiment [1], in experiment [2] and in experiment [3] were 10.8 pg/µg/h, 11.5 pg/µg/h and 11.2 pg/µg/h, respectively.
Taken in the same sequence, the figures for `Cc1nc(C(=O)O)cc2c1[nH]c1ncccc12` were 15.4 pg/µg/h, 20.1 pg/µg/h and 17.4 pg/µg/h.
Taken in the same sequence, the figures for `COC(=O)C1Cc2c([nH]c3ncccc23)C(C2CCCCC2)N1` (stereo not drawn) were 10.2 pg/µg/h, 11 pg/µg/h and 10.7 pg/µg/h.
As for `COC(=O)C1Cc2c([nH]c3ncc(C)cc23)C(C2CCCCC2)N1` (stereo not drawn), the Activity was determined as 10.9 pg/µg/h in experiment [1], 11.9 pg/µg/h in experiment [2] and 11.5 pg/µg/h in experiment [3].
